Experimental data reported in ChEMBL document CHEMBL1134446, “Polyamine analogue antidiarrheals: a structure-activity study” (J Med Chem, 2001).
Several values for one entry are separate records, joined by “and”; a condition that tells them apart may be missing. Equal values may be shown once.

Assays:
Rattus norvegicus [1] = experiment: Stool output of rat over the 6-h collection period when a dose of 9.4 mg/kg (23.3 administered; format: functional
Canis familiaris [2] = experiment: Spermine Distribution in kidney was determined after DESPM dosing of 8.0 mg/kg/day for 4.5 days in dog(cu dose-52.4) and sacrificed at 10 days PLD(cu dose-36 mg/kg); format: ADME, organism-based, Canis lupus familiaris; details: in vivo, 240 h
Canis familiaris [3] = experiment: MESPM/MEHSPH Distribution in kidney was determined after DESPM dosing of 6.0 mg/kg/day for 4.5 days in dog(cu dose-52.4) and sacrificed at 75 days PLD(cu dose-27 mg/kg); format: ADME, organism-based, Canis lupus familiaris; details: in vivo, 1800 h
Canis familiaris [4] = experiment: Spermidine Distribution in kidney was determined after DESPM dosing of 1.87 mg/kg/day for 28 days in dog(cu dose-52.4) and sacrificed at 75 days PLD(cu dose-52.4 mg/kg); format: ADME, organism-based, Canis lupus familiaris; details: in vivo, 1800 h
Canis familiaris [5] = experiment: putrescine Distribution in liver was determined after DESPM dosing of 4 mg/kg/day for 13 days in dog(cu dose-52.4) and sacrificed at 10 days PLD(cu dose-52 mg/kg); format: ADME, organism-based, Canis lupus familiaris; details: in vivo, 240 h
Canis familiaris [6] = experiment: putrescine Distribution in kidney was determined after DESPM dosing of 4.0 mg/kg/day for 13 days in dog and sacrificed at 75 days PLD(cu dose-52 mg/kg); format: ADME, organism-based, Canis lupus familiaris; details: in vivo, 1800 h
Canis familiaris [7] = experiment: putrescine Distribution in kidney was determined after DESPM dosing of 6.0 mg/kg/day for 4.5 days in dog and sacrificed at 10 days PLD(cu dose-27 mg/kg); format: ADME, organism-based, Canis lupus familiaris; details: in vivo, 240 h
Rattus norvegicus [8] = experiment: Percent reduction was determined by using the ratio of mean of treated animal to that of control animal at a dose of 23.5 mg/kg; format: functional
Rattus norvegicus [9] = experiment: Stool output of rat over the 6-h collection period when a dose of 14.3 mg/kg (35.4 administered; format: functional
Canis familiaris [10] = experiment: Spermidine Distribution in liver was determined after DESPM dosing of 1.87 mg/kg/day for 28 days in dog(cu dose-52.4) and sacrificed at 10 days PLD(cu dose-52.4 mg/kg); format: ADME, organism-based, Canis lupus familiaris; details: in vivo, 240 h
Canis familiaris [11] = experiment: MESPM/MEHSPH Distribution in kidney was determined after DESPM dosing of 4 mg/kg/day for 13 days in dog(cu dose-52.4) and sacrificed at 75 days PLD(cu dose-52 mg/kg); format: ADME, organism-based, Canis lupus familiaris; details: in vivo, 1800 h
Canis familiaris [12] = experiment: Spermidine Distribution in liver was determined after DESPM dosing of 8.0 mg/kg/day for 4.5 days in dog(cu dose-52.4) and sacrificed at 75 days PLD(cu dose-36 mg/kg); format: ADME, organism-based, Canis lupus familiaris; details: in vivo, 1800 h
Canis familiaris [13] = experiment: Spermine Distribution in liver was determined after DESPM dosing of 6.0 mg/kg/day for 4.5 days in dog(cu dose-52.4) and sacrificed at 75 days PLD(cu dose-27 mg/kg); format: ADME, organism-based, Canis lupus familiaris; details: in vivo, 1800 h
Canis familiaris [14] = experiment: Spermidine Distribution in liver was determined after DESPM dosing of 6.0 mg/kg/day for 4.5 days in dog(cu dose-52.4) and sacrificed at 75 days PLD(cu dose-27 mg/kg); format: ADME, organism-based, Canis lupus familiaris; details: in vivo, 1800 h
Canis familiaris [15] = experiment: Spermine Distribution in kidney was determined after DESPM dosing of 4 mg/kg/day for 13 days in dog(cu dose-52.4) and sacrificed at 75 days PLD(cu dose-52 mg/kg); format: ADME, organism-based, Canis lupus familiaris; details: in vivo, 1800 h
Canis familiaris [16] = experiment: Spermidine Distribution in kidney was determined after DESPM dosing of 4 mg/kg/day for 13 days in dog(cu dose-52.4) and sacrificed at 10 days PLD(cu dose-52 mg/kg); format: ADME, organism-based, Canis lupus familiaris; details: in vivo, 240 h
Canis familiaris [17] = experiment: Spermidine Distribution in liver was determined after DESPM dosing of 4 mg/kg/day for 13 days in dog(cu dose-52.4) and sacrificed at 10 days PLD(cu dose-52 mg/kg); format: ADME, organism-based, Canis lupus familiaris; details: in vivo, 240 h
Rattus norvegicus [18] = experiment: Stool output of rat over the 6-h collection period when a dose of 4.7 mg/kg (11.6 administered; format: functional
Rattus norvegicus [19] = experiment: Weight loss of rat over the 6-h experimental period when a dose of 14.3 mg/kg (35.4 administered; format: functional
Canis familiaris [20] = experiment: MESPM/MEHSPH Distribution in liver was determined after DESPM dosing of 4 mg/kg/day for 13 days in dog(cu dose-52.4) and sacrificed at 75 days PLD(cu dose-52 mg/kg); format: ADME, organism-based, Canis lupus familiaris; details: in vivo, 1800 h
Canis familiaris [21] = experiment: Spermine Distribution in liver was determined after DESPM dosing of 8.0 mg/kg/day for 4.5 days in dog(cu dose-52.4) and sacrificed at 10 days PLD(cu dose-36 mg/kg); format: ADME, organism-based, Canis lupus familiaris; details: in vivo, 240 h
Canis familiaris [22] = experiment: putrescine Distribution in liver was determined after DESPM dosing of 6.0 mg/kg/day for 4.5 days in dog(cu dose-52.4) and sacrificed at 75 days PLD(cu dose-27 mg/kg); format: ADME, organism-based, Canis lupus familiaris; details: in vivo, 1800 h
Canis familiaris [23] = experiment: Distribution in liver was determined after DESPM dosing of 6.0 mg/kg/day for 4.5 days in dog(cu dose-52.4) and sacrificed at 10 days PLD(cu dose-27 mg/kg); format: ADME, organism-based, Canis lupus familiaris; details: in vivo, 240 h
Canis familiaris [24] = experiment: Distribution in kidney was determined after DESPM dosing of 8.0 mg/kg/day for 4.5 days in dog(cu dose-52.4) and sacrificed at 75 days PLD(cu dose-36 mg/kg); format: ADME, organism-based, Canis lupus familiaris; details: in vivo, 1800 h
Canis familiaris [25] = experiment: MESPM/MEHSPH Distribution in kidney was determined after DEHSPM dosing of 2.0 mg/kg/day for 29 days in dog(cu dose-52.4) and sacrificed at 10 days PLD(cu dose-22 mg/kg); format: ADME, organism-based, Canis lupus familiaris; details: in vivo, 240 h
Canis familiaris [26] = experiment: Distribution in kidney was determined after DEHSPM dosing of 2.0 mg/kg/day for 29 days in dog(cu dose-52.4) and sacrificed at 10 days PLD(cu dose-22 mg/kg); format: ADME, organism-based, Canis lupus familiaris; details: in vivo, 240 h
Canis familiaris [27] = experiment: Spermidine Distribution in liver was determined after DEHSPM dosing of 2.0 mg/kg/day […] in dog(cu dose-52.4) and sacrificed at 10 days PLD(cu dose-22 mg/kg); format: ADME, organism-based, Canis lupus familiaris; details: in vivo, 240 h
Canis familiaris [28] = experiment: putrescine Distribution in liver was determined after DEHSPM dosing of 2.0 mg/kg/day for 29 days in dog(cu dose-52.4) and sacrificed at 10 days PLD([…]); format: ADME, organism-based, Canis lupus familiaris; details: in vivo, 240 h
Canis familiaris [29] = experiment: Spermine Distribution in liver was determined after DEHSPM dosing of 2.0 mg/kg/day for 29 days in dog(cu dose-52.4) and sacrificed at 10 days PLD(cu dose-22 mg/kg); format: ADME, organism-based, Canis lupus familiaris; details: in vivo, 240 h
Canis familiaris [30] = experiment: Distribution in kidney was determined after DEHSPM dosing of 2.0 mg/kg/day for 29 days in dog(cu dose-52.4) and sacrificed at 10 days PLD(cu dose-58 mg/kg); format: ADME, organism-based, Canis lupus familiaris; details: in vivo, 240 h
Canis familiaris [31] = experiment: HSPM Distribution in liver was determined after DEHSPM dosing of 2.0 mg/kg/day for 29 days in dog(cu dose-52.4) and sacrificed at 10 days PLD(cu dose-58 mg/kg); format: ADME, organism-based, Canis lupus familiaris; details: in vivo, 240 h
Canis familiaris [32] = experiment: Distribution in liver was determined after DESPM dosing of 4 mg/kg/day for 13 days in dog(cu dose-52.4) and sacrificed at 75 days PLD(cu dose-52 mg/kg); format: ADME, organism-based, Canis lupus familiaris; details: in vivo, 1800 h
Canis familiaris [33] = experiment: Distribution in kidney was determined after DESPM dosing of 1.87 mg/kg/day for 28 days in dog(cu dose-52.4) and sacrificed at 75 days PLD(cu dose-52.4 mg/kg); format: ADME, organism-based, Canis lupus familiaris; details: in vivo, 1800 h

In the case of `CCNCCCNCCCCNCCCNCC` [BIS(ETHYL)SPERMINE], the Stool output (Rattus norvegicus [1]) is reported as <0.6 g (350g of rat weight)-1, the “Wet weight of tissue” value (Canis familiaris [2]) is reported as 784 nM/g and the “Wet weight of tissue” value (Canis familiaris [3]) is reported as 0 nM/g. The “Wet weight of tissue” value (Canis familiaris [4]) was 87 nM/g, the “Wet weight of tissue” value (Canis familiaris [5]) was 82 nM/g and the “Wet weight of tissue” value (Canis familiaris [6]) was 7 nM/g. For the same compound, the “Wet weight of tissue” value (Canis familiaris [7]) was 7 nM/g, the Reduction (Rattus norvegicus [8]) was 59% and 74% and the Stool output (Rattus norvegicus [9]) was <0.6 g (350g of rat weight)-1. For the same compound, the “Wet weight of tissue” value (Canis familiaris [10]) was 179 nM/g, the “Wet weight of tissue” value (Canis familiaris [11]) was 0 nM/g and the “Wet weight of tissue” value (Canis familiaris [12]) was 221 nM/g. For the same compound, the “Wet weight of tissue” value (Canis familiaris [13]) was 992 nM/g, the “Wet weight of tissue” value (Canis familiaris [14]) was 244 nM/g and the “Wet weight of tissue” value (Canis familiaris [15]) was 534 nM/g. The “Wet weight of tissue” value (Canis familiaris [16]) was 82 nM/g, the “Wet weight of tissue” value (Canis familiaris [17]) was 176 nM/g and the Stool output (Rattus norvegicus [18]) was <3 g (350g of rat weight)-1. For the same compound, the Weight loss (Rattus norvegicus [19]) was under 4.4 g, the “Wet weight of tissue” value (Canis familiaris [20]) was 0 nM/g and the “Wet weight of tissue” value (Canis familiaris [21]) was 937 nM/g. The “Wet weight of tissue” value (Canis familiaris [22]) was 101 nM/g.
For `CCNCCCCNCCCCNCCCCNCC` [DIETHYLHOMOSPERMINE], the “Wet weight of tissue” value (Canis familiaris [23]) was 30 nM/g, the “Wet weight of tissue” value (Canis familiaris [24]) was 0 nM/g and the “Wet weight of tissue” value (Canis familiaris [25]) was 3 nM/g. For the same compound, the “Wet weight of tissue” value (Canis familiaris [26]) was 0 nM/g, the “Wet weight of tissue” value (Canis familiaris [27]) was 68 nM/g and the “Wet weight of tissue” value (Canis familiaris [28]) was 34 nM/g. For the same compound, the “Wet weight of tissue” value (Canis familiaris [29]) was 386 nM/g, the “Wet weight of tissue” value (Canis familiaris [30]) was 98 nM/g and the “Wet weight of tissue” value (Canis familiaris [31]) was 751 nM/g. The “Wet weight of tissue” value (Canis familiaris [32]) was 0 nM/g and the “Wet weight of tissue” value (Canis familiaris [33]) was 0 nM/g.
